According to paper PMC10058050, “A Bitter Taste Receptor as a Novel Molecular Target on Cancer-Associated Fibroblasts in Pancreatic Ductal Adenocarcinoma” (Pharmaceuticals, 2023):

How the values were obtained:
Ki67 = Ki67 staining of tumor sections (cell proliferation); assay type: in vivo, mouse (athymic nude); conditions: ImageJ; p < 0.01
Procedure: Tumor sections were blocked for 1 h in blocking buffer, and incubated with FITC-conjugated anti-CD31 (BD biosciences, 1:100, 20 min) then anti-rat secondary (1:250, 20 min), or anti-Ki67 (Abcam, 1:250, 20 min) then anti-rabbit secondary (1:250, 20 min). Images were collected using ZEISS LSM-880 Confocal Laser Scanning Microscope (Carl Zeiss Meditec, Inc., Jena, Germany). Mander’s correlation coefficients were determined using the JACoP plugin in ImageJ (National Institute of Health, Bethesda, MD, USA) for the colocalization analysis. To characterize CD31 and Ki67 expression, the area fraction of the positive pixels was measured for each image using the Measurement Tool in ImageJ. Section averages were entered into Prism to find overall means for each treatment group and tested for statistical significance between groups using the Student’s t-test.
The drug dosage was calculated for each treatment to achieve the same weekly amount of Sb225002 given per animal. Tumor volume was measured with calipers twice weekly until day 19, at which time the tumors were harvested for cell proliferation (Ki67) and angiogenesis (CD31) analysis, and CXCR2 IHC staining.

KPC mice = conditions: cited from earlier work
Text: CXCR2 antagonists have been explored in non-cancer lung diseases (e.g., NCT01255592, NCT01006616) and in certain cancers such as castration-resistant prostate cancer (NCT03177187) and squamous cell carcinoma of the head and neck (NCT02499328).

CXCR2 = conditions: cited from earlier work
Text: To further evaluate pharmacodynamics, we characterized CXCR2 inhibition as a surrogate for the delivery of SB225002. Tumors from all groups were fixed and paraffin embedded for immunohistochemistry staining. […] Furthermore, the inhibition of angiogenesis has been cited as a contributing factor to th ...

[1] = all dose levels up to 240 mg; cited from earlier work
Text: While mounting evidence points to a role of bitter taste receptors in cancer epithelial cells and in Tuft cells, this report, is to our knowledge, the first indication that TAS2R9 is expressed on CAFs. The fact that TAS2R9 is overexpressed in 7.33% of human PDAC tissue, and that its expression in pancreatic CAFs is 57-fold higher than in the human dermal fibroblast raises the interesting question of what role TAS2R9 may play in CAFs. In particular, the revelation that TAS2R9 mRNA expression ...

[2] = tested on: CAFs isolated from the stroma of PDAC patients; conditions: cited from earlier work; for Specificity and selectivity for CAFs: CAFs isolated from the stroma of PDAC patients
[3] = tested on: PDAC patient-derived CAFs (TAS2R9); test: Phage display-based pulldown from PDAC patient-derived CAFs with MS/MS identification; assay type: binding, human; conditions: SDS-PAGE, compared with WT M13KE phage and phAPPIMSV
Procedure: Thus, we hypothesized that their binding partners could serve as potential cellular markers and therapeutic targets for CAFs. Using a phage display-based functional proteomics approach, wild-type (WT) M13KE phage or phage displaying CAF selective peptides (phHTTIPKV and phAPPIMSV) were incubated with PDAC patient-derived CAFs allowing the phage to serve as “bait.” Phage were chemically modified to crosslink to their cell surface binding partner, then phage pull-down samples were resolved via SDS-PAGE. […] In-proteo ELISA experiments were performed to evaluate the specific binding of phHTTIPKV to recombinant human TAS2R9 (rhTAS2R9). Phage displaying KTLLPTP (phKTLLPTP), a PDAC epithelial cell-specific peptide, served as a negative control. […] Therefore, we pursued validation of TAS2R9 as HTTIPKV’s target and as a novel CAF-selective cell surface marker.
(§1) Figure 1 TAS2R9 expression in CAFs isolated from human PDAC. (A) Phage pulldowns from PDAC patient-derived CAFs by the M13Ke (lane 1) and CAF-specific phages, phAPPIMSV and phHTTIPKV (lane 2 and 3). […] (B) 4 × 10^9 pfu phHTTIPKV and a PDAC specific phage, phKTLLPTP, were applied to rhTAS2R9 to determine the absorbance of phage binding to rhTAS2R9 at 650 nm. The absorbance of both phage were normalized to the absorbance detected from rhTAS2R9 bound to the wild-type M13Ke phage. n = 3, * p < 0.05. […]

[4] = tested on: recombinant human TAS2R9 (rhTAS2R9); test: Phage ELISA on recombinant human TAS2R9 (in-proteo ELISA); assay type: binding; conditions: 4 × 10^9 pfu phage; absorbance 650 nm, 35 min after TMB; normalized to M13KE; 1 h RT; n = 3, p < 0.05
Procedure: Thus, we hypothesized that their binding partners could serve as potential cellular markers and therapeutic targets for CAFs. Using a phage display-based functional proteomics approach, wild-type (WT) M13KE phage or phage displaying CAF selective peptides (phHTTIPKV and phAPPIMSV) were incubated with PDAC patient-derived CAFs allowing the phage to serve as “bait.” Phage were chemically modified to crosslink to their cell surface binding partner, then phage pull-down samples were resolved via SDS-PAGE. […] In-proteo ELISA experiments were performed to evaluate the specific binding of phHTTIPKV to recombinant human TAS2R9 (rhTAS2R9). Phage displaying KTLLPTP (phKTLLPTP), a PDAC epithelial cell-specific peptide, served as a negative control. […]
as §1, with “PDAC.” for “PDAC. (A) Phage pulldowns from PDAC patient-derived CAFs by the M13Ke (lane 1) and CAF-specific phages, phAPPIMSV and phHTTIPKV (lane 2 and 3).”
About 100 μL of 0.1 μg/mL rhTAS2R9 (Novus Biological, Littleton, CO, USA) was plated in 96-well plates overnight at 4 °C. […] The absorbance was measured on a microplate reader at 650 nm at 35 min post addition of TMB

[5] = molecular target: T1, recombinant human TAS2R9 (rhTAS2R9) (human) (UniProt Q9NYW1); test: ELISA; 0.1 ug/mL rhTAS2R9 coated on 96-well plates overnight at 4 °C, 5% milk block, 40 uL phage at 1 x 10^8 pfu/uL for 1 h at room temperature, HRP anti-M13 antibody, absorbance at 650 nm; normalised to wild-type M13KE phage
T1 sequence (Q9NYW1 whole entry, looked up): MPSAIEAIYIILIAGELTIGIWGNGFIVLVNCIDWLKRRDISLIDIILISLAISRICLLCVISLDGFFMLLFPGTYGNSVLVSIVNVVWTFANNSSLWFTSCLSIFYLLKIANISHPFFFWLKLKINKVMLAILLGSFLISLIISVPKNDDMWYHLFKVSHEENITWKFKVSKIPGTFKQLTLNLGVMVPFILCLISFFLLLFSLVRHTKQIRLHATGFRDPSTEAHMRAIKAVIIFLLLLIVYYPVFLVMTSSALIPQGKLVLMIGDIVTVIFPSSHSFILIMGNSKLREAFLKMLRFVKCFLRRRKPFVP

O=C(Nc1ccc([N+](=O)[O-])cc1O)Nc1ccccc1Br [SB225002]
Ki67+ area fraction (cell proliferation) (Ki67): significant reduction in Ki67+ area fraction | Survival of KPC mice (KPC mice): profoundly prolong survival in KPC mice | Contribution to anti-tumor effects: angiogenesis (CXCR2): inhibition of angiogenesis has been cited as a contributing factor to the anti-tumor effects

CC(=O)[O-].CC[N+](CC)(CC(=O)Nc1c(C)cccc1C)Cc1ccccc1 [pan-TAS2R agonist, Denatonium Acetate]
Tolerability in phase one clinical trial [1]: well tolerated at all dose levels up to 240 mg

APPIMSV
Specificity and selectivity for CAFs [2]: high specificity and selectivity for CAFs

HTTIPKV
Unique band in phage pulldown [3]: presence of a unique band | Specificity and selectivity for CAFs [2]: high specificity and selectivity for CAFs | Selectivity for CAFs in vitro and in vivo ([2]; signature database of 56 cell lines and tissues): selective for CAFs across in vitro and in vivo experiments

HTTIPKV [phHTTIPKV]
Increase in specific binding to rhTAS2R9 compared to phKTLLPTP [4]: 2.72 fold

B1: phage displaying HTTIPKV (phHTTIPKV) (peptide)
peptide: HTTIPKV
fold specific binding against phKTLLPTP (each normalised to M13KE phage) [5]: 2.72 fold
